Test results reported in article PMC10539439 (Pharmacological Reports, 2023).
Values joined by “and” are separate entries in the source; they are usually repeats but may differ in a detail not shown here. Identical values can stand only once.

Experiments:
[1] = Core body temperature of obese rats (implanted logger); assay type: in vivo, rat; conditions: for temperature after administration: hight-fat diet, 5mg/kg, individual rats 1-6
Experimental: Animals with induced obesity (two more groups) were subcutaneously implanted with a DST micro-HRT heart rate logger (Star-Oddi, Island), which simultaneously measured long-term core temperature. Under general anesthesia (thiopental, 70 mg/kg, ip), the loggers were inserted under the skin in the groin area and sutured with a surgical thread. Forty-eight hours later, the baseline temperature was measured, and at 9:30 AM, 4-OH-Guanabenz was administered ip at a dose of 5 mg/kg b.w. The first measurement was recorded 30 min after the administration of the test compound, and then, the temperature was recorded every hour. After 24 h, the loggers were removed, the temperature data were read, and Mercury software (Star-Oddi Mercury Data Logger PC Software, Iceland) was used to collect and analyze the information obtained. Using this technology, measurements are made without the direct intervention of the researcher; therefore, there is no disturbance in the readings evoked by stress in the animals.

[2] = Spontaneous activity in the home cage (RFID, TraffiCage); assay type: in vivo, rat; conditions: for activity: hight-fat diet, 5mg/kg, after first administration, 5 mg/kg
Experimental: Rat spontaneous activity was monitored for 24 h on the 1st and 24th (after multiple administrations of tested compound or vehicle) day of treatment with a radio-frequency identification system (RFID system)—TraffiCage (TSE-Systems, Germany)—transponder-based activity monitoring under group housing. The animals had subcutaneously implanted transponder identification with RFID code, which allowed the presence and time spent in different areas of the home cage to be recorded. The data were collected with a dedicated platform, placed under the home cage, containing five RFID antennas (six cage areas) reading telemetrically the presence of RFID chips and stored for analysis with a dedicated computer program. The animals during the monitoring of spontaneous activity were in home cages and always had free access to food and water.

Cl.N=C(N)NN=Cc1c(Cl)cc(O)cc1Cl [4-OH-Guanabenz, 2-[(2,6-Dichloro-4-hydroxyphenyl)methylene]hydrazinecarboximidamide Hydrochloride]
temperature after administration ([1]; hour 8): 37 ⚬C and 36.53 ⚬C and 36.75 ⚬C and 36.42 ⚬C and 36.67 ⚬C and 36.78 ⚬C
temperature after administration ([1]; hour 9): 37.34 ⚬C and 36.42 ⚬C and 36.64 ⚬C and 36.98 ⚬C and 36.78 ⚬C and 36.67 ⚬C
temperature after administration ([1]; hour 10): 37.34 ⚬C and 36.5 ⚬C and 36.87 ⚬C and 36.53 ⚬C and 36.67 ⚬C and 37.01 ⚬C
temperature after administration ([1]; hour 11): 37 ⚬C and 36.64 ⚬C and 36.08 ⚬C and 37.09 ⚬C and 36.67 ⚬C and 36.56 ⚬C
temperature after administration ([1]; hour 12): 37 ⚬C and 36.53 ⚬C (2×) and 36.87 ⚬C and 36.56 ⚬C and 37.35 ⚬C
temperature after administration ([1]; hour 13): 37.22 ⚬C and 37.09 ⚬C and 36.75 ⚬C and 36.64 ⚬C and 36.56 ⚬C and 36.67 ⚬C
temperature after administration ([1]; hour 14): 37.34 ⚬C and 36.42 ⚬C (3×) and 36.78 ⚬C and 37.12 ⚬C
temperature after administration ([1]; hour 15): 37.34 ⚬C and 36.53 ⚬C (2×) and 36.08 ⚬C and 36.56 ⚬C and 36.45 ⚬C
temperature after administration ([1]; hour 16): 37.34 ⚬C and 37.09 ⚬C and 36.64 ⚬C and 35.97 ⚬C and 36.34 ⚬C and 36.56 ⚬C
temperature after administration ([1]; hour 17): 37 ⚬C and 37.09 ⚬C and 36.53 ⚬C and 36.67 ⚬C and 36.45 ⚬C and 37.23 ⚬C
temperature after administration ([1]; hour 18): 37.45 ⚬C and 36.53 ⚬C and 36.3 ⚬C and 37.21 ⚬C and 36.56 ⚬C and 36.34 ⚬C
temperature after administration ([1]; hour 19): 36.6 ⚬C and 36.75 ⚬C and 36.53 ⚬C and 36.3 ⚬C and 36.67 ⚬C (2×)
temperature after administration ([1]; hour 20): 37.22 ⚬C and 37.32 ⚬C and 36.19 ⚬C and 35.97 ⚬C and 36.56 ⚬C and 36.23 ⚬C
temperature after administration ([1]; hour 21): 37.45 ⚬C and 36.08 ⚬C (2×) and 36.19 ⚬C and 36.78 ⚬C and 36.12 ⚬C
temperature after administration ([1]; hour 22): 36.77 ⚬C and 36.3 ⚬C and 35.86 ⚬C and 36.08 ⚬C and 36.45 ⚬C and 36.12 ⚬C
temperature after administration ([1]; hour 23): 36.89 ⚬C and 36.3 ⚬C and 36.19 ⚬C and 36.53 ⚬C and 36.34 ⚬C and 36.23 ⚬C
temperature after administration ([1]; hour 24): 36.66 ⚬C and 36.64 ⚬C and 36.3 ⚬C and 36.19 ⚬C and 36.78 ⚬C and 35.89 ⚬C
effect on core temperature (in words) ([1]; obese rats, 5 mg/kg b.w. ip, vs obese control): No significant effects on core temperature
activity ([2]; hour 2, individual rats): 241 counts and 466 counts and 407 counts and 76 counts and 54 counts
activity ([2]; hour 3, individual rats): 175 counts and 744 counts and 1081 counts and 269 counts and 412 counts
activity ([2]; hour 4, individual rats): 468 counts and 421 counts and 262 counts and 105 counts and 179 counts
activity ([2]; hour 5, individual rats): 721 counts and 62 counts and 232 counts and 2 counts and 78 counts
activity ([2]; hour 6, individual rats): 248 counts and 6* counts and 445 counts and 569 counts and 80 counts
activity ([2]; hour 7, individual rats): 1058 counts and 287 counts and 302 counts and 211 counts and 276 counts
activity ([2]; hour 8, individual rats): 513 counts and 751 counts and 432 counts (2×) and 306 counts
activity ([2]; hour 9, individual rats): 853 counts and 240 counts and 521 counts and 547 counts and 173 counts
activity ([2]; hour 10, individual rats): 276 counts and 938 counts and 536 counts and 556 counts and 142 counts
activity ([2]; hour 11, individual rats): 504 counts and 558 counts and 708 counts and 326 counts and 403 counts
activity ([2]; hour 12, individual rats): 347 counts and 440 counts and 410 counts and 404 counts and 692 counts
activity ([2]; hour 13, individual rats): 674 counts and 446 counts and 516 counts and 428 counts and 684 counts
activity ([2]; hour 14, individual rats): 437 counts and 1077* counts and 632 counts and 394 counts and 897 counts
activity ([2]; hour 15, individual rats): 692 counts and 273 counts and 929 counts and 462 counts and 743 counts
activity ([2]; hour 16, individual rats): 387 counts and 825 counts and 409 counts and 821 counts and 664 counts
activity ([2]; hour 17, individual rats): 618 counts and 1081 counts and 250 counts and 383 counts and 813 counts
activity ([2]; hour 18, individual rats): 339 counts and 628 counts and 260 counts and 133 counts and 576 counts
activity ([2]; hour 19, individual rats): 608 counts and 953 counts and 971 counts and 592 counts and 271 counts
activity ([2]; hour 20, individual rats): 298 counts and 398 counts and 614 counts and 684 counts and 663 counts
activity ([2]; hour 21, individual rats): 215 counts and 344 counts and 275 counts and 266 counts and 475 counts
effect on spontaneous activity (in words) ([2]; obese rats, after the first and 24th administration, 5 mg/kg b.w.): no effect
